What all share (assay): NCI-60 cell line screen, 48 h
The test system of assay [1] is DLD-1 colon.
In assay [2] the test system is DMS 114 small cell lung.
Assay [3] relates to DMS 273 small cell lung.
Assay [4] relates to KM20L2 colon.
The test system of assay [5] is LXFL 529 NSCLC.
Assay [6] deals with RXF-631 renal.
For assay [7], the system named is SNB-78 CNS.
Assay [8] deals with MDA-N.
For assay [9], the system named is XF 498 CNS.
Assay [10] deals with SN12K1 renal.

Results on 35 compounds are retold here after PubChem BioAssay (NCI).

Values after ≈ are worked out from the molar mass of the structure shown. Values joined by “and” are separate entries in the source; they are usually repeats but may differ in a detail not shown here. Identical values can stand only once.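 Dose response: 5 concentrations. Exposure: 48 h. Format: 96-well plates. Endpoint: linear interpolation; highest concentration if not reached. Abbreviation: GI50, concentration required for 50% inhibition of growth. Definition used: TGI = concentration required for complete inhibition of growth.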 Active and inactive are the calls of the source. No stated cut-off is given here; in the data, active means GI50 below about 0.43 µM; inactive means the rest. Where a SMILES comes first, the peptide text is derived from it. Bridges are numbered along the chain shown (N, C = ends).

Take `CN(CCc1ccccn1)/[N+]([O-])=N/O` (tested in a mixture with another compound): the TGI in assay [1], in assay [2], in [3], in [4], in [5] and in assay [6] was over 100 µM each time. The compound also yielded a TGI in [7] of over 100 µM.
As to `CC(C)c1ccc(C(c2c(O)c3ccccc3oc2=O)c2c(O)c3ccccc3oc2=O)cc1`, the TGI in assay [8] came to 46.8 µM.
Consider `C=C1CCCC2OC(OC)CCC12` (stereo not given), for which the TGI in assay [1], in assay [2], in assay [3], in [4], in assay [5] and in [6] was over 100 µM in each case. Further, the TGI in assay [7] and in [9] was over 100 µM in each case.
Take `CCCCCCCCC1C(C)c2c([nH]c3ccccc23)C2C(=O)N(c3ccccc3)C(=O)C21` (stereo not given): the TGI worked out at 45.2 µM in [1]; 23.4 µM in assay [2]; 22.2 µM in assay [3]; 31.7 µM in assay [4]; 30.1 µM in assay [5]; 14.2 µM in [6]. Moreover, the TGI in [7] is 29.8 µM.
Take `CCC(C)C1NC(=O)C(CC(C)C)NC(=O)C(C(C)C)NC(=O)C2CSSCC(NC1=O)C(=O)N2` (stereo not given) (cyclo(CCVLI); disulfide 1-2; configuration not given here): in assay [8], the TGI came to 0.339 µM.
Regarding `CSC(=NC(=O)c1ccccc1)SCCSC(=NC(=O)c1ccccc1)SC`, the TGI in [1], in assay [2], in [3], in assay [4], in [5] and in assay [6] was over 100 µM in each case. In addition, the TGI in [7] and in assay [9] was over 100 µM throughout.
Regarding `O=C(O)CC(S)C(=O)O.[Li+].[Sb]` (stereo not given), in assay [8], the GI50 was over 100 µM and the TGI is over 100 µM.
`CC(C)c1ccc(C(O)(C(=O)O)c2ccc(C(C)C)cc2)cc1` gave a TGI in [8] of over 100 µM.
Consider `CC1(C)C=C(N2CCN(C3=CC(C)(C)NC(C)(C)C3)CC2)CC(C)(C)N1`, for which the TGI in assay [1], in [2], in assay [3], in [4], in assay [5] and in assay [7] was over 100 µM in each case. This compound came in with a TGI in assay [9] of over 100 µM.
For `O=[N+]([O-])c1cc(C(F)(F)F)cc2n[se]nc12`, the TGI in assay [1] came out at 8.93 µM; in assay [2] it was 5.92 µM; in assay [3] it was 27.3 µM; in assay [4] it was 16.4 µM; in [5], 3.14 µM; in assay [8], 3.85 µM. Also, the TGI in assay [6] was determined as 30.8 µM; in assay [7], 25.9 µM; in assay [9], 5.66 µM.
For `O=C(CC1(O)C(=O)Nc2c(Cl)cc(Cl)cc21)c1ccc([N+](=O)[O-])cc1` (stereo not given), the TGI is over 66 µM in [1]; 53.1 µM in assay [2]; over 100 µM in assay [3]; over 100 µM in [4]; over 51.5 µM in assay [5]; over 78.9 µM in assay [7]. Further, the TGI in assay [9] is over 100 µM.
In the case of `CSc1nc(SC)c2c(C)c(Br)[nH]c2n1`, the TGI in [8] was over 100 µM.
On to `CC(=O)CCn1[nH]c(=O)c(Cl)c(Cl)c1=O`, for which the TGI in assay [1], in [2], in [3], in assay [4], in [5] and in assay [7] was over 100 µM in each case. The TGI in [9] is over 100 µM.
`CCc1nc(N)nc(N)c1-c1ccc(N(C)Cc2ccccc2)c([N+](=O)[O-])c1` gave a TGI in assay [8] of 19.1 µM.
In the case of `CC(/C=C1\CCC(CN(C)C)C1=O)c1cccc(Br)c1` (stereo not given), the TGI in assay [1] is 35.1 µM; in assay [2], 54.8 µM; in [4] it was 45.4 µM; in assay [5] it was 17.1 µM; in assay [6], 16.9 µM; in assay [7], 44.7 µM. In [9], the TGI was found to be 35.1 µM.
In the case of `Cl.[O-]c1cccc2cccnc12.[O-]c1cccc2cccnc12.[O-]c1cccc2cccnc12.[O-]c1cccc2cccnc12.[Ti+4]`, the TGI in [1] was 1.6 µM; in assay [2], 0.365 µM; in assay [3], 1.69 µM; in [4], over 76 µM.
On to `O=C1C(c2ccccc2)=[N+]([O-])c2cc([N+](=O)[O-])ccc21`, for which the TGI in assay [1] worked out at 46.9 µM; in assay [2], 27.3 µM; in assay [4], 47.3 µM; in [9], 39.3 µM.
As to `COc1ccc(C(=O)Nc2ccn(CCOC(=O)c3ccc(OC)cc3)c(=O)n2)cc1`, the TGI in [1], in assay [2], in assay [3], in assay [4], in assay [5] and in assay [6] was over 100 µM in each case. Moreover, the TGI in [7] and in assay [9] was over 100 µM each time.
Turning to `COc1ccccc1/C=C1\CCC(CN2CCOCC2)C1=O` (stereo not given), the TGI in [1] was determined as 18.1 µM; in [2], 35.6 µM; in [3], 28.4 µM; in [4] it was 32.6 µM; in assay [5], 9.34 µM; in assay [8], 26.9 µM. Also, the TGI was 24.4 µM in [6], 48.2 µM in assay [7] and 30.1 µM in assay [9].
For the compound `CCCc1nn(C)c(CCC(=O)N(Cc2ccccc2)Cc2ccccc2)c1CC`, the TGI in assay [1], in assay [2], in assay [4], in assay [5], in assay [7] and in [9] was over 100 µM in each case.
On to `CC1=C(C(=O)Nc2ccccc2C)C(c2ccccc2O)C(C(=O)Nc2ccccc2C)=C(C)N1`, for which the TGI in [1] came to 36.1 µM; in [2], 50.4 µM; in assay [3] it was 35.2 µM; in [4], 45.6 µM; in assay [5], 51 µM; in assay [7], 74.7 µM. The TGI in assay [9] was determined as 61.5 µM.
Take `CCCCCCCCCCCCCP(=O)(OC)OC`: the TGI in [1] stood at 30.5 µM; in [2], 37 µM; in assay [3] it was 33.1 µM; in [4] it was 42.8 µM; in assay [5], 33.5 µM; in [6], 32.5 µM. Moreover, the TGI in assay [7] was found to be 35.5 µM; in [9], 31.8 µM.
On to `Cc1ccc(-c2nc3ccccc3c(=O)n2NC2OC(CO)C(O)C(O)C2O)cc1` (stereo not given), for which the TGI in [2], in [3], in assay [4], in assay [5], in assay [6] and in assay [7] was over 100 µM each time. This compound also yielded a TGI in assay [9] of over 100 µM.
Take `CCCCCC1CC=CC(NC(=O)OCc2ccccc2)C1/C=C/CCCC1OCCO1` (stereo not given): the TGI in assay [1], in assay [2], in assay [3], in assay [4], in assay [5] and in assay [6] was over 100 µM throughout. Further, the TGI in assay [7] and in [9] was over 100 µM in each case.
`C=C1C(=O)O[C@H]2C3OC3(C)CC/C=C(/C(=O)OC)[C@@H](OC(C)=O)[C@H](OC(=O)C3(C)OC3C)[C@H]12` (stereo not given in full): the GI50 in assay [2] is 0.604 µg/mL (≈ 1.3 µM); in assay [3] it was 1.1 µg/mL; in assay [7], 1.81 µg/mL. In addition, the TGI worked out at 1.8 µg/mL in assay [2], 3.73 µg/mL in [3], 3.46 µM in assay [8] and 6.79 µg/mL in [7]. Also, the outcome in assay [4] and in assay [5] was inactive.
In the case of `CC(=O)OC(C)(C)C[N+](=O)[O-]`, the TGI in [1], in [2], in assay [3], in assay [4] and in [5] was over 100 µM in each case.
For the compound `CCCCCCCCCCCCCC(=O)NO`, the TGI in [1] is over 94.8 µM; in assay [2], 27.2 µM; in assay [3], 27.3 µM; in [4], 26 µM; in assay [5], 38.7 µM; in [8], over 100 µM. The TGI in assay [6] is over 62.5 µM; in assay [7], over 95 µM; in [9], 60.3 µM.
Consider `O=C1NC(c2cccc3ccccc23)Nc2ccccc21` (stereo not given), for which, in assay [8], the TGI was 0.00629 µM and 0.0586 µM.
With `COC(=O)/C(=N\Nc1nc(=S)[nH]n1N)C(C#N)c1ccc(Cl)cc1` (stereo not given), the TGI in assay [1], in assay [2], in assay [3], in assay [4], in assay [5] and in assay [6] was over 100 µM each time. The TGI in assay [7] and in assay [9] was over 100 µM throughout.
Consider `CCN(CC)CCCNc1nccc2c(C)c3[nH]c4ccncc4c(=O)c3cc12`, for which the TGI in assay [1] is 21.8 µM; in [2], 2.91 µM; in [3], 11.8 µM; in [4], 40 µM; in assay [5] it was 11.4 µM; in [6], 22 µM. The TGI was determined as 13.7 µM in assay [7] and 6.63 µM in assay [9].
Turning to `CN(CO)c1nc(N(C)CO)nc(N(C)CO)n1`, the TGI in assay [1] was 97.2 µM; in assay [3], 25.8 µM; in assay [4], 25.2 µM; in assay [8], 39.3 µM and 63.4 µM; in assay [10], 14.1 µM; in assay [7] it was 25.3 µM. Besides, the TGI in assay [9] amounted to 12.8 µM. The GI50 in assay [8] was 24.8 µM.
Consider `c1ccc(N2CCN(CCCN3CCc4c([nH]c5ccccc45)C3c3cccnc3)CC2)cc1` (stereo not given), for which the TGI in assay [1] was over 100 µM; in [2] it was over 100 µM; in assay [3], over 75.4 µM; in assay [4] it was over 100 µM; in assay [5] it was over 100 µM; in assay [6], 98.2 µM. The figures for the TGI in assay [7] and in assay [9] were over 100 µM and 44.6 µM, respectively.
As for `CCC1=CCC(P(=O)(c2ccccc2)c2ccccc2)CC1C` (stereo not given), the TGI in assay [2], in assay [3], in assay [4], in [5], in assay [7] and in assay [9] was over 100 µM in each case.
As for `CC[C@@]1(O)C(=O)OCc2c1cc1n(c2=O)Cc2cc3cccc(N)c3nc2-1`, the GI50 was over 100 µM in [1]; 1.78 µM in assay [3]; 26.2 µM in [4]; over 100 µM in assay [5]; over 100 µM in assay [7]; 27.3 µM in assay [9]. Besides, the TGI in assay [1] was over 100 µM; in [3] it was 8.48 µM; in [4], over 100 µM; in [5] it was over 100 µM; in assay [7], over 100 µM; in assay [9], 82.1 µM.
In the case of `C=C(C)C1CC=C(C)C(O)([C@@]2(O)C[C@H](C(=C)C)CC=C2C)C1` (stereo not given in full), the TGI in assay [1] was over 100 µM; in [2], over 100 µM; in assay [3], 39.9 µM; in assay [5], over 100 µM; in [7], over 100 µM; in [9], 29.7 µM.
